Patent US8192962B2, “Processes for detecting toxic substances” (Daikin Industries, Ltd., priority 2001, dated 2012)

Tested on: Stress protein genes
Assay: DNA chip mRNA expression in yeast, stress protein genes (Table 6)
Type: cell-based, Saccharomyces cerevisiae S288C
Summary of the method: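 Values are treated/untreated fluorescence ratios from a whole-genome yeast DNA chip hybridized over 12 hours at 65° C with Cy3- or Cy5-labelled cDNA from poly(A) mRNA. Log-phase S288C yeast in YPD at 25° C had received a single toxic chemical for two hours, dosed to slow growth without killing.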

**Q.** How did the “The level of expressed mRNA in the presence of chemical substance/The level of expressed mRNA in the absence of chemical substance” value (yeast gene YIL033C) turn out when Cl[C@H]1[C@H](Cl)[C@@H](Cl)[C@@H](Cl)[C@H](Cl)[C@H]1Cl [(7), γ-hexachlorocyclohexane] was run?
**A.** 1.1

**Q.** And the “The level of expressed mRNA in the presence of chemical substance/The level of expressed mRNA in the absence of chemical substance” value (yeast gene YIR037W)?
**A.** 1.8

**Q.** And the “The level of expressed mRNA in the presence of chemical substance/The level of expressed mRNA in the absence of chemical substance” value (yeast gene YIR038C)?
**A.** 2.0

**Q.** What about the “The level of expressed mRNA in the presence of chemical substance/The level of expressed mRNA in the absence of chemical substance” value (yeast gene YJL128C) of the same compound?
**A.** 1.8

**Q.** What about the “The level of expressed mRNA in the presence of chemical substance/The level of expressed mRNA in the absence of chemical substance” value (yeast gene YJL158C) of the same compound?
**A.** 0.4

**Q.** What about the “The level of expressed mRNA in the presence of chemical substance/The level of expressed mRNA in the absence of chemical substance” value (yeast gene YJL159W) of the same compound?
**A.** 0.9

**Q.** And the “The level of expressed mRNA in the presence of chemical substance/The level of expressed mRNA in the absence of chemical substance” value (yeast gene YJL165C)?
**A.** 0.8

**Q.** What about the “The level of expressed mRNA in the presence of chemical substance/The level of expressed mRNA in the absence of chemical substance” value (yeast gene YJR045C) of the same compound?
**A.** 1.0

**Q.** And the “The level of expressed mRNA in the presence of chemical substance/The level of expressed mRNA in the absence of chemical substance” value (yeast gene YJR090C)?
**A.** 0.8

**Q.** What about the “The level of expressed mRNA in the presence of chemical substance/The level of expressed mRNA in the absence of chemical substance” value (yeast gene YKL161C) of the same compound?
**A.** 2.0

**Q.** And the “The level of expressed mRNA in the presence of chemical substance/The level of expressed mRNA in the absence of chemical substance” value (yeast gene YKL163W)?
**A.** 0.9

**Q.** And the “The level of expressed mRNA in the presence of chemical substance/The level of expressed mRNA in the absence of chemical substance” value (yeast gene YKL164C)?
**A.** 0.8

**Q.** And the “The level of expressed mRNA in the presence of chemical substance/The level of expressed mRNA in the absence of chemical substance” value (yeast gene YKL210W)?
**A.** 1.0

**Q.** And the “The level of expressed mRNA in the presence of chemical substance/The level of expressed mRNA in the absence of chemical substance” value (yeast gene YKR053C)?
**A.** 1.7

**Q.** What about the “The level of expressed mRNA in the presence of chemical substance/The level of expressed mRNA in the absence of chemical substance” value (yeast gene YLL024C) of the same compound?
**A.** 1.1

**Q.** What about the “The level of expressed mRNA in the presence of chemical substance/The level of expressed mRNA in the absence of chemical substance” value (yeast gene YLL026W) of the same compound?
**A.** 2.9

**Q.** And the “The level of expressed mRNA in the presence of chemical substance/The level of expressed mRNA in the absence of chemical substance” value (yeast gene YLL039C)?
**A.** 1.1

**Q.** What about the “The level of expressed mRNA in the presence of chemical substance/The level of expressed mRNA in the absence of chemical substance” value (yeast gene YLL060C) of the same compound?
**A.** 2.0

**Q.** And the “The level of expressed mRNA in the presence of chemical substance/The level of expressed mRNA in the absence of chemical substance” value (yeast gene YLR006C)?
**A.** 1.1

**Q.** And the “The level of expressed mRNA in the presence of chemical substance/The level of expressed mRNA in the absence of chemical substance” value (yeast gene YLR109W)?
**A.** 2.6

**Q.** What about the “The level of expressed mRNA in the presence of chemical substance/The level of expressed mRNA in the absence of chemical substance” value (yeast gene YLR259C) of the same compound?
**A.** 1.8

**Q.** What about the “The level of expressed mRNA in the presence of chemical substance/The level of expressed mRNA in the absence of chemical substance” value (yeast gene YML007W) of the same compound?
**A.** 1.1

**Q.** What about the “The level of expressed mRNA in the presence of chemical substance/The level of expressed mRNA in the absence of chemical substance” value (yeast gene YML070W) of the same compound?
**A.** 3.1

**Q.** What about the “The level of expressed mRNA in the presence of chemical substance/The level of expressed mRNA in the absence of chemical substance” value (yeast gene YMR021C) of the same compound?
**A.** 2.5

**Q.** And the “The level of expressed mRNA in the presence of chemical substance/The level of expressed mRNA in the absence of chemical substance” value (yeast gene YMR173W)?
**A.** 2.4

**Q.** And the “The level of expressed mRNA in the presence of chemical substance/The level of expressed mRNA in the absence of chemical substance” value (yeast gene YMR186W)?
**A.** 1.2

**Q.** What about the “The level of expressed mRNA in the presence of chemical substance/The level of expressed mRNA in the absence of chemical substance” value (yeast gene YNL064C) of the same compound?
**A.** 0.6

**Q.** What about the “The level of expressed mRNA in the presence of chemical substance/The level of expressed mRNA in the absence of chemical substance” value (yeast gene YNL160W) of the same compound?
**A.** 2.4

**Q.** What about the “The level of expressed mRNA in the presence of chemical substance/The level of expressed mRNA in the absence of chemical substance” value (yeast gene YNL241C) of the same compound?
**A.** 3.2

**Q.** And the “The level of expressed mRNA in the presence of chemical substance/The level of expressed mRNA in the absence of chemical substance” value (yeast gene YNR076W)?
**A.** 1.2

**Q.** And the “The level of expressed mRNA in the presence of chemical substance/The level of expressed mRNA in the absence of chemical substance” value (yeast gene YOL064C)?
**A.** 1.2

**Q.** What about the “The level of expressed mRNA in the presence of chemical substance/The level of expressed mRNA in the absence of chemical substance” value (yeast gene YOL161C) of the same compound?
**A.** 0.9

**Q.** And the “The level of expressed mRNA in the presence of chemical substance/The level of expressed mRNA in the absence of chemical substance” value (yeast gene YOR008C)?
**A.** 0.8

**Q.** What about the “The level of expressed mRNA in the presence of chemical substance/The level of expressed mRNA in the absence of chemical substance” value (yeast gene YOR009W) of the same compound?
**A.** 0.6

**Q.** And the “The level of expressed mRNA in the presence of chemical substance/The level of expressed mRNA in the absence of chemical substance” value (yeast gene YOR010C)?
**A.** 0.4

**Q.** What about the “The level of expressed mRNA in the presence of chemical substance/The level of expressed mRNA in the absence of chemical substance” value (yeast gene YOR027W) of the same compound?
**A.** 1.3

**Q.** And the “The level of expressed mRNA in the presence of chemical substance/The level of expressed mRNA in the absence of chemical substance” value (yeast gene YOR208W)?
**A.** 1.1

**Q.** And the “The level of expressed mRNA in the presence of chemical substance/The level of expressed mRNA in the absence of chemical substance” value (yeast gene YPL059W)?
**A.** 0.7

**Q.** What about the “The level of expressed mRNA in the presence of chemical substance/The level of expressed mRNA in the absence of chemical substance” value (yeast gene YPL106C) of the same compound?
**A.** 1.1

**Q.** And the “The level of expressed mRNA in the presence of chemical substance/The level of expressed mRNA in the absence of chemical substance” value (yeast gene YPL140C)?
**A.** 1.4

**Q.** What about the “The level of expressed mRNA in the presence of chemical substance/The level of expressed mRNA in the absence of chemical substance” value (yeast gene YPL194W) of the same compound?
**A.** 1.5

**Q.** What about the “The level of expressed mRNA in the presence of chemical substance/The level of expressed mRNA in the absence of chemical substance” value (yeast gene YPL223C) of the same compound?
**A.** 1.1

**Q.** And the “The level of expressed mRNA in the presence of chemical substance/The level of expressed mRNA in the absence of chemical substance” value (yeast gene YPL240C)?
**A.** 1.4

**Q.** And the “The level of expressed mRNA in the presence of chemical substance/The level of expressed mRNA in the absence of chemical substance” value (yeast gene YPR005C)?
**A.** 1.2

**Q.** And the “The level of expressed mRNA in the presence of chemical substance/The level of expressed mRNA in the absence of chemical substance” value (yeast gene YPR026W)?
**A.** 1.3
